For assay [1], the system named is leukotriene pathway in human whole blood (LTB4 levels). In words: Human whole blood assay (A23187-stimulated LTB4). It is filed as cell-based. Conditions: Homo sapiens, human whole blood diluted 1:1, A23187-stimulated; read-out: LTB4 IC50 1:1. The gist of the method: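 Heparinised human whole blood diluted 1:1 in RPMI, pre-incubated 15 min at 37° Celsius with compound, then stimulated with A23187 (7 μg/mL) for 30 min at 37° Celsius. Plasma LTB4 measured by immunoassay kit; IC50 from 4-parameter fit; single replicate per plate, at least one healthy donor.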

The target in another assay is human FLAP (Homo sapiens (Human), UniProt P20292). The experiment in a line: FLAP binding assay (HTRF format). Conditions: wild type FLAP, HTRF format. The method in brief: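 HTRF ratio read-out; two independent plates, samples in duplicate on each, values averaged across plates.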
Sequence of human FLAP (P20292 whole entry): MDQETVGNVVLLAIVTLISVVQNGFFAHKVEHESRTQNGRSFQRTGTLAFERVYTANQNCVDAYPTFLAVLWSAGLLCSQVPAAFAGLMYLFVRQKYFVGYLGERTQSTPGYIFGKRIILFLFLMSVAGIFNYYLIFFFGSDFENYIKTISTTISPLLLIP
A general note: TR-FRET usually uses a lanthanide donor and a delayed reading to cut background.

Structures can show the parent of a compound that is named as a salt.

Consider `C[C@H](NS(=O)(=O)c1ccccc1-c1ccc(-c2cnc(N)nc2)nc1)C(F)(F)F` [Example 685, 2-[6-(2-Aminopyrimidin-5-yl)pyridin-3-yl]-N-[(1S)-2,2,2-trifluoro-1-methylethyl]benzenesulfonamide trifluoroacetic acid salt], for which the IC50 (as a rule, the concentration that gives 50% inhibition) in assay [1] was determined as 115 nM. Besides, at human FLAP, the Ki (usually a dissociation constant, usually derived from enzyme kinetics or from competition with a known ligand) was determined as 52.3 nM.
In the case of `C[C@@H](NS(=O)(=O)c1ccccc1-c1ccc(-c2cnc(N)nc2)nc1)C(F)(F)F` [Example 686, 2-[6-(2-Aminopyrimidin-5-yl)pyridin-3-yl]-N-[(1R)-2,2,2-trifluoro-1-methylethyl]benzenesulfonamide trifluoroacetic acid salt], the IC50 in assay [1] came to 1490 nM. Besides, the affinity on human FLAP, expressed as Ki, was 334 nM.
For `Nc1ncc(-c2ccc(-c3ccccc3S(=O)(=O)N3CCNC(=O)C3)cn2)cn1` [Example 687, 4-({2-[6-(2-Aminopyrimidin-5-yl)pyridin-3-yl]phenyl}sulonyl)piperazin-2-one], in that order: 3550 nM and 740 nM.
For `C[C@H](O)CNS(=O)(=O)c1ccccc1-c1ccc(-c2cnc(N)nc2)nc1` [Example 688, 2-[6-(2-Aminopyrimidin-5-yl)pyridin-3-yl]-N-[(2S)-2-hydroxypropyl]benzenesulfonamide], the IC50 in assay [1] stood at 1180 nM. At human FLAP, this compound came in with a Ki of 696 nM.
For `C[C@@H](O)CNS(=O)(=O)c1ccccc1-c1ccc(-c2cnc(N)nc2)nc1` [Example 689, 2-[6-(2-Aminopyrimidin-5-yl)pyridin-3-yl]-N-[(2R)-2-hydroxypropyl]benzenesulfonamide] the same measures were 787 nM and 485 nM.
For `Nc1ncc(-c2ccc(-c3ccc(C(F)(F)F)cc3S(=O)(=O)NCCO)cn2)cn1` [Example 690, 2-[6-(2-Aminopyrimidin-5-yl)pyridin-3-yl]-N-(2-hydroxyethyl)-5-(trifluoromethyl)benzenesulfonamide] the same measures were 118 nM and 177 nM.
For the compound `CCNS(=O)(=O)c1cc(C(F)(F)F)ccc1-c1ccc(-c2cnc(N)nc2)nc1` [Example 692, 2-[6-(2-Aminopyrimidin-5-yl)pyridin-3-yl]-N-ethyl-5-(trifluoromethyl)benzenesulfonamide trifluoroacetic acid salt], the half-maximal inhibitory concentration (IC50) in assay [1] is 110 nM. Moreover, the Ki at human FLAP came to 53.3 nM.
Consider `CC(C)(C)NS(=O)(=O)c1ccccc1-c1ccc(-c2cnc(N)nc2)nc1` [Example 693, 2-[6-(2-Aminopyrimidin-5-yl)pyridin-3-yl]-N-tert-butylbenzenesulfonamide], for which the IC50 in assay [1] came to 103 nM. At human FLAP, this compound registered a Ki of 49.5 nM.
For `C[C@H](CO)NS(=O)(=O)c1ccccc1-c1ccc(-c2cnc(N)nc2)nc1` [Example 694, 2-[6-(2-Aminopyrimidin-5-yl)pyridin-3-yl]-N-[(1R)-2-hydroxy-1-methylethyl]benzenesulfonamide] the same measures were 1010 nM and 676 nM.
Take `N#Cc1nc(-c2ccc(-c3ccccc3Oc3nccc(N)n3)cc2F)cnc1N` [Example 695, 3-Amino-6-{2′-[(4-aminopyrimidin-2-yl)oxy]-3-fluorobiphehenyl-4-yl}pyrazine-2-carbonitrile trifluoroacetic acid salt]: the IC50 in assay [1] was 336 nM. The same compound returned a Ki at human FLAP of 8.4 nM.
For `Nc1cnc(-c2ccc(-c3ccc(Br)cc3F)cc2F)cn1` [Example 696, 5-(4′-Bromo-2′,3-difluorobiphenyl-4-yl)pyrazin-2-amine] the same measures were 3270 nM and about 250 nM.
For `COc1c(-c2ccc(C(F)(F)F)cc2)ccc(-c2cnc(N)cn2)c1F` [Example 698, 5-(3-fluoro-2-methoxy-4′-(trifluoromethyl)-[1,1′-biphenyl]-4-yl)pyrazin-2-amine], in that order: 112 nM and 8.7 nM.
In the case of `N#Cc1nc(N)cnc1-c1ccc(-c2ccccc2S(=O)(=O)N2CCS(=O)(=O)CC2)cc1F` [Example 704, 6-Amino-3-{2′-[(1,1-dioxidothiomorpholin-4-yl)sulfonyl]-3-fluorobiphenyl-4-yl}pyrazine-2-carbonitrile], the IC50 in assay [1] came to 191 nM. Besides, the Ki on human FLAP came out at 102 nM.
As to `CNC(=O)C1CN(S(=O)(=O)c2ccccc2-c2ccc(-c3cnc(N)nc3)c(F)c2)C1` [Example 705, 1-{[4′-(2-Aminopyrimidin-5-yl)-3′-fluorobiphenyl-2-yl]sulfonyl}-N-methylazetidine-3-carboxamide], the IC50 in assay [1] was 289 nM. The Ki on human FLAP amounted to 86.9 nM.
For `N#Cc1nc(N)cnc1-c1ccc(-c2ccccc2S(=O)(=O)NCCO)cc1F` [Example 706, 4′-(5-Amino-3-cyanopyrazin-2-yl)-3′-fluoro-N-(2-hydroxyethyl)biphenyl-2-sulfonamide], in that order: 362 nM and 79.6 nM.
For the compound `C[C@H](O)CNS(=O)(=O)c1ccccc1-c1ccc(-c2ncc(N)nc2C#N)c(F)c1` [Example 707, 4′-(5-Amino-3-cyanopyrazin-2-yl)-3′-fluoro-N-[(2S)-2-hydroxypropyl]biphenyl-2-sulfonamide], in assay [1], the IC50 was found to be 127 nM. In addition, the Ki on human FLAP stood at 32.7 nM.
Take `C[C@@H](O)CNS(=O)(=O)c1ccccc1-c1ccc(-c2ncc(N)nc2C#N)c(F)c1` [Example 708, 4′-(5-Amino-3-cyanopyrazin-2-yl)-3′-fluoro-N-[(2R)-2-hydroxypropyl]biphenyl-2-sulfonamide]: in assay [1], the half-maximal inhibitory concentration (IC50) came out at 142 nM. This compound also yielded a Ki at human FLAP of 23.5 nM.
For `NC(=O)C1CCN(S(=O)(=O)c2ccccc2-c2ccc(-c3cnc(N)nc3)c(F)c2)CC1` [Example 709, 1-((4′-(2-Aminopyrimidin-5-yl)-3′-fluoro-[1,1′-biphenyl]-2-yl)sulfonyl)piperidine-4-carboxamide], in that order: 268 nM and 5.4 nM.
In the case of `C[C@H](CO)NS(=O)(=O)c1ccccc1-c1ccc(-c2ncc(N)nc2C#N)c(F)c1` [Example 710, 4′-(5-Amino-3-cyanopyrazin-2-yl)-3′-fluoro-N-[(1R)-2-hydroxy-1-methylethyl]biphenyl-2-sulfonamide], in assay [1], the half-inhibitory concentration (IC50) is 56.5 nM. Moreover, the Ki on human FLAP is 13.7 nM.
As to `C[C@@H](CO)NS(=O)(=O)c1ccccc1-c1ccc(-c2ncc(N)nc2C#N)c(F)c1` [Example 711, 4′-(5-Amino-3-cyanopyrazin-2-yl)-3′-fluoro-N-[(1S)-2-hydroxy-1-methylethyl]biphenyl-2-sulfonamide], the IC50 in assay [1] is 142 nM. The same compound registered a Ki on human FLAP of 41.7 nM.
For `N#Cc1nc(N)cnc1-c1ccc(-c2ccc(C(F)(F)F)cc2S(=O)(=O)NCCO)cc1F` [Example 712, 4′-(5-Amino-3-cyanopyrazin-2-yl)-3′-fluoro-N-(2-hydroxyethyl)-4-(trifluoromethyl)biphenyl-2-sulfonamide], in that order: 52.3 nM and 1.9 nM.
As for `CCNS(=O)(=O)c1cc(C(F)(F)F)ccc1-c1ccc(-c2ncc(N)nc2C#N)c(F)c1` [Example 713, 4′-(5-Amino-3-cyanopyrazin-2-yl)-N-ethyl-3′-fluoro-4-(trifluoromethyl)-[1,1′-biphenyl]-2-sulfonamide], the IC50 in assay [1] stood at 53.4 nM. Besides, affinity on human FLAP was put at a Ki of 1.7 nM.
Turning to `CC(C)(CO)CNS(=O)(=O)c1ccccc1-c1ccc(-c2ncc(N)nc2C#N)c(F)c1` [Example 714, 4′-(5-Amino-3-cyanopyrazin-2-yl)-3′-fluoro-N-(3-hydroxy-2,2-dimethylpropyl)biphenyl-2-sulfonamide], the IC50 in assay [1] came out at 33.1 nM. For the same compound, the affinity at human FLAP, expressed as Ki, was 2.4 nM.
With `Nc1cnc(-c2ccc(-c3ccccc3S(=O)(=O)c3nccc(N)n3)cc2F)cn1` [Example 727, 2-{[4′-(5-Aminopyrazin-2-yl)-3′-fluorobiphenyl-2-yl]sulfonyl}pyrimidin-4-amine], in assay [1], the half-maximal inhibitory concentration (IC50) stood at 1170 nM. The compound further had a Ki at human FLAP of 484 nM.
`N#Cc1nc(N)cnc1-c1ccc(-c2ccccc2S(=O)(=O)C2CC2)cc1F` [Example 729, 6-Amino-3-[2′-(cyclopropylsulfonyl)-3-fluorobiphenyl-4-yl]pyrazine-2-carbonitrile]: the IC50 in assay [1] was 861 nM. In addition, affinity at human FLAP was put at a Ki of 64.7 nM.
In the case of `N#CC1(S(=O)(=O)c2ccccc2-c2ccc(-c3cnc(N)cn3)c(F)c2)CCCC1` [Example 730, 1-{[4′-(5-Aminopyrazin-2-yl)-3′-fluorobiphenyl-2-yl]sulfonyl}cyclopentanecarbonitrile], the IC50 in assay [1] is 136 nM. The compound also displayed a Ki at human FLAP of 6.7 nM.
For `NC(=O)C1(S(=O)(=O)c2ccccc2-c2ccc(-c3cnc(N)cn3)c(F)c2)CCCC1` [Example 731, 1-{[4′-(5-Aminopyrazin-2-yl)-3′-fluorobiphenyl-2-yl]sulfonyl}cyclopentanecarboxamide], in that order: 51.3 nM and 14.7 nM.
For `CC(C)(C#N)S(=O)(=O)c1ccccc1-c1ccc(-c2cnc(N)cn2)c(F)c1` [Example 735, 2-{[4′-(5-Aminopyrazin-2-yl)-3′-fluorobiphenyl-2-yl]sulfonyl}-2-methylpropanenitrile], in that order: 272 nM and 32 nM.
In the case of `N#CC1(S(=O)(=O)c2ccccc2-c2ccc(-c3cnc(N)nc3)c(F)c2)CCCC1` [Example 738, 1-{[4′-(2-Aminopyrimidin-5-yl)-3′-fluorobiphenyl-2-yl]sulfonyl}cyclopentanecarbonitrile], the IC50 in assay [1] is 2950 nM. The affinity at human FLAP corresponds to a Ki of 240 nM.
For `NC(=O)C1(S(=O)(=O)c2ccccc2-c2ccc(-c3cnc(N)nc3)c(F)c2)CCCC1` [Example 739, 1-{[4′-(2-Aminopyrimidin-5-yl)-3′-fluorobiphenyl-2-yl]sulfonyl}cyclopentanecarboxamide] the same measures were 1110 nM and 370 nM.
For `Nc1cnc(Sc2ccccc2-c2ccc(-c3cnc(N)cn3)c(F)c2)cn1` [Example 741, 5-{[4′-(5-Aminopyrazin-2-yl)-3′-fluorobiphenyl-2-yl]sulfanyl}pyrazin-2-amine], in assay [1], the IC50 came to 26.3 nM. In addition, the Ki at human FLAP is 4.6 nM.

Source of the values: patent US9079866B2, “Flap modulators” (JANSSEN PHARMACEUTICA NV, priority 2013, dated 2015).
